# Source: patent publication US20230365556A1, “N-ACYL AMINO ACID COMPOUNDS AND METHODS OF USE” (Pliant Therapeutics, Inc., priority 2016, published 2023)
# Molecular target: αvβ1 integrin (αvβ1 expressing CHO cells) (Homo sapiens (Human), UniProt P05556+P06756)
# Assay: Cell adhesion assay: inhibition of αvβ1 expressing CHO cells attaching to TGFβ1LAP
# Format: cell-based
# Conditions: 1 h at 37° C., crystal violet absorbance 595 nm, read-out: αvβ1 Inhibition IC50 (nM)-range
# Method: Example B1—Cell Adhesion Assay
# In order to determine the potency, the compounds were assessed for their ability to inhibit αvβ1 expressing CHO cells attach to TGFβ1LAP. Microplates were coated overnight with 2 ug/ml TGFβ1LAP at 4° C., and blocked with 2% BSA/PBS for 30 min before the assay. Cells were detached and washed in PBS. After that the cells were resuspended in DMEM at 1.0×10^6 cells/ml, fifty microliter of cell suspension and fifty microliter of compound solution were added into the plate. The plates were incubated for one hour at 37° C. in humidified 5% carbon dioxide. Non-adherent cells were removed by centrifugation top side down at 58 g for 5 min. The attached cells were fixed and stained with 0.5% crystal violet (in 20% methanol and 1% formaldehyde) and the wells washed with PBS. Crystal violet was dissolved in 2% Triton-X in PBS. The relative number of cells in each well was evaluated by the absorbance at 595 nm in a microplate reader (Tecan). IC50 values were determined by non-linear regression with four parameters (Graphpad Prism 7.01, Y=Bottom+(Top−Bottom)/(1+10^((Log IC50−X)*HillSlope)).
# The compounds tested were compound samples prepared according to procedures described in the Synthetic Examples section, with the stereochemical purity as indicated in the Examples indicated for Example or Compound No. 1-62. The compounds tested were predominantly S-configuration at the alpha carbon of the amino acid scaffold, except for compounds 123, 124, and 125 which were predominantly R-configuration at the alpha carbon of the amino acid scaffold. “Example or Compound No.” in Table B-1 refers to the compound illustrated in the examples for Example or Compound Nos. 1-62 (the compounds of Examples 1-62 are labeled as Compounds 1-62 in Table 1). “Example or Compound No.” in Table B-1 refers to the compound number as indicated in Table 1 or Table 2 for Example or Compound Nos. 63-126.
# Chain of αvβ1 integrin (αvβ1 expressing CHO cells) (P06756 31-889): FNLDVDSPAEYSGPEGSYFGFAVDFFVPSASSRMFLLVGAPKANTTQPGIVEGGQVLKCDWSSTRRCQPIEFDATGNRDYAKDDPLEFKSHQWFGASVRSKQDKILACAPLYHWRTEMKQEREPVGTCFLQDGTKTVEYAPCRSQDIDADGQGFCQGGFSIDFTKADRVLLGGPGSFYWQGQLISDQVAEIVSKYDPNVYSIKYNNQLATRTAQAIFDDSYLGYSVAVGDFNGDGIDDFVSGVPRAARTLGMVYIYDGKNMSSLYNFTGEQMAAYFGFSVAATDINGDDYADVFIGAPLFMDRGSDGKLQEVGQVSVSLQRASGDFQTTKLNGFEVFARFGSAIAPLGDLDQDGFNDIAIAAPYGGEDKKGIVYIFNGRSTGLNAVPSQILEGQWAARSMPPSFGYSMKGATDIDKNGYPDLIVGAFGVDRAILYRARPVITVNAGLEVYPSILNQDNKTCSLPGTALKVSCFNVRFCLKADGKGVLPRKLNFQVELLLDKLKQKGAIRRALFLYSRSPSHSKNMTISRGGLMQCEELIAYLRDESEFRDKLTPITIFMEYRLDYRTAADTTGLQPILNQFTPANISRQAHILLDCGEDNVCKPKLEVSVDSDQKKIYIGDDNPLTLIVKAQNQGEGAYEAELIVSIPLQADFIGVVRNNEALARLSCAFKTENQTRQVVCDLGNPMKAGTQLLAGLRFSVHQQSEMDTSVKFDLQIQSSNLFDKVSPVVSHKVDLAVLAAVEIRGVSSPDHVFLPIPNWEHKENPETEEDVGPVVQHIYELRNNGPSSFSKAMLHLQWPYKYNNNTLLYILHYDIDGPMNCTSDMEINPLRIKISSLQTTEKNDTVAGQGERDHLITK
# Chain of αvβ1 integrin (αvβ1 expressing CHO cells) (P06756 891-1048 partner): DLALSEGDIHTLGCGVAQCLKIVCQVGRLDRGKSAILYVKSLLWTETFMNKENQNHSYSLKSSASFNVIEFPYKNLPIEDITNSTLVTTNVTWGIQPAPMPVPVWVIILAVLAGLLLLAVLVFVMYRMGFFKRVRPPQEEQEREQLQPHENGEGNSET
# Chain of αvβ1 integrin (αvβ1 expressing CHO cells) (P05556 21-798): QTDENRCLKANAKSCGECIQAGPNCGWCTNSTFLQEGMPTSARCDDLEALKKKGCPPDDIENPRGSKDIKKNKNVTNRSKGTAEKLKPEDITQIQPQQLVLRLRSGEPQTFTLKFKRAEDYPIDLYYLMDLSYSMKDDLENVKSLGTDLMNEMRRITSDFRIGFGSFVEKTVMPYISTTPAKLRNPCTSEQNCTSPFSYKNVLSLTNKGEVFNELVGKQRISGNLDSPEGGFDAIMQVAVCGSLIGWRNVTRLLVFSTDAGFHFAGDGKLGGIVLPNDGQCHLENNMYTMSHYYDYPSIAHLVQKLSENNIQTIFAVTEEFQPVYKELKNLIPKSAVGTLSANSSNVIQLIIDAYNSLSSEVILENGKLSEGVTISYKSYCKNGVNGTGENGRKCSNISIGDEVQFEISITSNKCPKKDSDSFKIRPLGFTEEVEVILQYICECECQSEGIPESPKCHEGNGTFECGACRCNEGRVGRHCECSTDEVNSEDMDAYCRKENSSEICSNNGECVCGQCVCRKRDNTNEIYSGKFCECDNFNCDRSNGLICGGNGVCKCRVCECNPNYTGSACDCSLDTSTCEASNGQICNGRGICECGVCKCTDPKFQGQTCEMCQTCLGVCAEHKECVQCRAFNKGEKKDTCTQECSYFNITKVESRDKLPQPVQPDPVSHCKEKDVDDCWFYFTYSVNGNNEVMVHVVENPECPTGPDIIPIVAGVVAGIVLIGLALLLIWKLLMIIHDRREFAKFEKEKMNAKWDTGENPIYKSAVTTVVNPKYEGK
row,SMILES,IC50 [nM]
1,"O=C(NC(CN1CC(OCCCc2ccc3c(n2)NCCC3)C1)C(=O)O)c1c(Cl)cccc1Cl (racemic) [Example 28, (+/−)-2-(2,6-dichlorobenzamido)-3-(3-(3-(5,6,7,8-tetrahydro-1,8-naphthyridin-2-yl)propoxy)azetidin-1-yl)propanoic acid]",250 to 1000
2,"O=C(NC(CN1CC(OCCCc2ccc3c(n2)NCCC3)C1)C(=O)O)c1c(Cl)cccc1Cl (stereo not drawn) [Compound 74, 2-(2,6-dichlorobenzamido)-3-(3-(3-(5,6,7,8-tetrahydro-1,8-naphthyridin-2-yl)propoxy)azetidin-1-yl)propanoic acid]",250 to 1000
3,"Cn1ncc2cc(C(=O)NC(CCCCCCCc3ccc4c(n3)NCCC4)C(=O)O)ccc21 (stereo not drawn) [Compound 82, 2-(1-methyl-1H-indazole-5-carboxamido)-9-(5,6,7,8-tetrahydro-1,8-naphthyridin-2-yl)nonanoic acid]",50 to 250
4,"Cn1cc2cc(C(=O)NC(CCCCCCCc3ccc4c(n3)NCCC4)C(=O)O)ccc2n1 (stereo not drawn) [Compound 86, 2-(2-methyl-2H-indazole-5-carboxamido)-9-(5,6,7,8-tetrahydro-1,8-naphthyridin-2-yl)nonanoic acid]",50 to 250
5,O=C(NC(CCCCCCCc1ccc2c(n1)NCCC2)C(=O)O)c1ccc2cn[nH]c2c1 (stereo not drawn) [Compound 98],50 to 250
6,O=C(NC(Cc1ccc(OCCCc2ccc3c(n2)NCCC3)cc1)C(=O)O)c1c(Cl)cc(-c2cnc[nH]2)cc1Cl (stereo not drawn) [Compound 99],< 50
7,N#Cc1ccc(Cl)c(C(=O)N[C@@H](CCCCCCCc2ccc3c(n2)NCCC3)C(=O)O)c1 [Compound 100],< 50
8,N#Cc1ccc(C(=O)N[C@@H](CCCCCCCc2ccc3c(n2)NCCC3)C(=O)O)c(F)c1 [Compound 101],< 50
9,Cn1ncc2ccc(C(=O)N[C@@H](CCCCCCCc3ccc4c(n3)NCCC4)C(=O)O)cc21 [Compound 102],50 to 250
10,O=C(N[C@@H](CCCCCCCc1ccc2c(n1)NCCC2)C(=O)O)c1ccc2[nH]ncc2c1 [Compound 103],50 to 250
11,Cn1ncc2cc(C(=O)N[C@@H](CCCCCCCc3ccc4c(n3)NCCC4)C(=O)O)ccc21 [Compound 104],50 to 250
12,O=C(N[C@@H](CCCCCCCc1ccc2c(n1)NCCC2)C(=O)O)c1ccc2cnn(C(F)F)c2c1 [Compound 105],250 to 1000
13,O=C(N[C@@H](CCCCCCCc1ccc2c(n1)NCCC2)C(=O)O)c1ccc2nn(C(F)F)cc2c1 [Compound 106],250 to 1000
14,O=C(N[C@@H](CCCCCCCc1ccc2c(n1)NCCC2)C(=O)O)c1ccc2c(cnn2C(F)F)c1 [Compound 107],250 to 1000
15,O=C(N[C@@H](CCCCCCCc1ccc2c(n1)NCCC2)C(=O)O)c1ccc2cn(C(F)F)nc2c1 [Compound 108],50 to 250
16,Cn1cc2cc(C(=O)N[C@@H](CCCCCCCc3ccc4c(n3)NCCC4)C(=O)O)ccc2n1 [Compound 109],50 to 250
17,O=C(N[C@@H](CCCCCCCc1ccc2c(n1)NCCC2)C(=O)O)c1cn[nH]c1-c1ccccc1 [Compound 110],50 to 250
18,O=C(N[C@@H](CCCCCCCc1ccc2c(n1)NCCC2)C(=O)O)c1ccc(-c2cccnc2)cc1 [Compound 111],250 to 1000
19,O=C(N[C@@H](CCCCCCCc1ccc2c(n1)NCCC2)C(=O)O)c1ccc(-c2ccncc2)cc1 [Compound 112],50 to 250
20,Cn1cc(-c2ccc(C(=O)N[C@@H](CCCCCCCc3ccc4c(n3)NCCC4)C(=O)O)cc2)cn1 [Compound 113],50 to 250

row,SMILES,IC50 [nM]
1,Cn1ncc2cccc(C(=O)N[C@@H](CCCCCCCc3ccc4c(n3)NCCC4)C(=O)O)c21 [Compound 114],< 50
2,Cn1ncc2c(C(=O)N[C@@H](CCCCCCCc3ccc4c(n3)NCCC4)C(=O)O)cccc21 [Compound 115],250 to 1000
3,O=C(N[C@@H](CCCCCCCc1ccc2c(n1)NCCC2)C(=O)O)c1cccc2[nH]ncc12 [Compound 116],< 50
4,"O=C(N[C@@H](Cc1ccc(OCCCc2ccc3c(n2)NCCC3)cc1)C(=O)O)c1ccccc1 [Example 1, (S)-2-benzamido-3-(4-(3-(5,6,7,8-tetrahydro-1,8-naphthyridin-2-yl)propoxy)phenyl)propanoic acid]",< 50
5,"Cn1cnc2ccc(C(=O)N[C@@H](Cc3ccc(OCCCc4ccc5c(n4)NCCC5)cc3)C(=O)O)cc21 [Example 2, (S)-2-(1-methyl-1H-benzo[d]imidazole-6-carboxamido)-3-(4-(3-(5,6,7,8-tetrahydro-1,8-naphthyridin-2-yl)propoxy)phenyl)propanoic acid]",< 50
6,"O=C(N[C@@H](Cc1ccc(OCCCc2ccc3c(n2)NCCC3)cc1)C(=O)O)c1cnc(C(F)F)cn1 [Example 3, (S)-2-(5-(difluoromethyl)pyrazine-2-carboxamido)-3-(4-(3-(5,6,7,8-tetrahydro-1,8-naphthyridin-2-yl)propoxy)phenyl)propanoic acid]",< 50
7,"O=C(N[C@@H](Cc1ccc(OCCCc2ccc3c(n2)NCCC3)cc1)C(=O)O)c1cncc(-c2ccccc2)n1 [Example 4, (S)-2-(6-phenylpyrazine-2-carboxamido)-3-(4-(3-(5,6,7,8-tetrahydro-1,8-naphthyridin-2-yl)propoxy)phenyl)propanoic acid]",> 1000
8,"N#Cc1cc(Cl)c(C(=O)N[C@@H](Cc2ccc(OCCCc3ccc4c(n3)NCCC4)cc2)C(=O)O)c(Cl)c1 [Example 5, (S)-2-(2,6-dichloro-4-cyanobenzamido)-3-(4-(3-(5,6,7,8-tetrahydro-1,8-naphthyridin-2-yl)propoxy)phenyl)propanoic acid]",< 50
9,"O=C(N[C@@H](Cc1ccc(OCCCc2ccc3c(n2)NCCC3)cc1)C(=O)O)c1c(F)cccc1C(F)(F)F [Example 6, (S)-2-(2-fluoro-6-(trifluoromethyl)benzamido)-3-(4-(3-(5,6,7,8-tetrahydro-1,8-naphthyridin-2-yl)propoxy)phenyl)propanoic acid]",< 50
10,"O=C(N[C@@H](Cc1ccc(OCCCc2ccc3c(n2)NCCC3)cc1)C(=O)O)c1c(F)cccc1F [Example 7, (S)-2-(2,6-difluorobenzamido)-3-(4-(3-(5,6,7,8-tetrahydro-1,8-naphthyridin-2-yl)propoxy)phenyl)propanoic acid]",< 50
11,"Cc1nccc(C(=O)N[C@@H](Cc2ccc(OCCCc3ccc4c(n3)NCCC4)cc2)C(=O)O)n1 [Example 8, (S)-2-(2-methylpyrimidine-4-carboxamido)-3-(4-(3-(5,6,7,8-tetrahydro-1,8-naphthyridin-2-yl)propoxy)phenyl)propanoic acid]",50 to 250
12,"Cn1cnc2cc(C(=O)N[C@@H](Cc3ccc(OCCCc4ccc5c(n4)NCCC5)cc3)C(=O)O)ccc21 [Example 9, (S)-2-(1-methyl-1H-benzo[d]imidazole-5-carboxamido)-3-(4-(3-(5,6,7,8-tetrahydro-1,8-naphthyridin-2-yl)propoxy)phenyl)propanoic acid]",50 to 250
13,"O=C(N[C@@H](Cc1ccc(OCCCc2ccc3c(n2)NCCC3)cc1)C(=O)O)c1ccc2ocnc2c1 [Example 10, (S)-2-(benzo[d]oxazole-5-carboxamido)-3-(4-(3-(5,6,7,8-tetrahydro-1,8-naphthyridin-2-yl)propoxy)phenyl)propanoic acid]",< 50
14,"Nc1cc(C(=O)N[C@@H](Cc2ccc(OCCCc3ccc4c(n3)NCCC4)cc2)C(=O)O)ccc1O [Example 11, (S)-2-(3-amino-4-hydroxybenzamido)-3-(4-(3-(5,6,7,8-tetrahydro-1,8-naphthyridin-2-yl)propoxy)phenyl)propanoic acid]",50 to 250
15,"O=CNc1cc(C(=O)N[C@@H](Cc2ccc(OCCCc3ccc4c(n3)NCCC4)cc2)C(=O)O)ccc1O [Example 12, (S)-2-(3-formamido-4-hydroxybenzamido)-3-(4-(3-(5,6,7,8-tetrahydro-1,8-naphthyridin-2-yl)propoxy)phenyl)propanoic acid]",< 50
16,"O=C(N[C@@H](Cc1ccc(OCCCc2ccc3c(n2)NCCC3)cc1)C(=O)O)c1ccncc1 [Example 13, (S)-2-(isonicotinamido)-3-(4-(3-(5,6,7,8-tetrahydro-1,8-naphthyridin-2-yl)propoxy)phenyl)propanoic acid]",< 50
17,"O=C(N[C@@H](Cc1ccc(OCCCc2ccc3c(n2)NCCC3)cc1)C(=O)O)c1cccnc1 [Example 14, (S)-2-(nicotinamido)-3-(4-(3-(5,6,7,8-tetrahydro-1,8-naphthyridin-2-yl)propoxy)phenyl)propanoic acid]",< 50
18,"O=C(N[C@@H](Cc1ccc(OCCCc2ccc3c(n2)NCCC3)cc1)C(=O)O)c1c(Cl)cncc1Cl [Example 15, (S)-2-(3,5-dichloroisonicotinamido)-3-(4-(3-(5,6,7,8-tetrahydro-1,8-naphthyridin-2-yl)propoxy)phenyl)propanoic acid]",< 50
19,"O=C(N[C@@H](Cc1ccc(OCCCc2ccc3c(n2)NCCC3)cc1)C(=O)O)c1c(Cl)cccc1Cl [Example 16, (S)-2-(2,6-dichlorobenzamido)-3-(4-(3-(5,6,7,8-tetrahydro-1,8-naphthyridin-2-yl)propoxy)phenyl)propanoic acid]",< 50
